Experimental data reported in patent US10988477B2 (Merck Patent GmbH, priority 2018, dated 2021).
pIC50, pKi: −log10 of the molar value. Where a name gives a salt, the structure may show the parent alone.

Assays:
GCN2 kinase = GCN2 kinase (Homo sapiens, UniProt Q9P2K8); assay: GCN2 enzyme inhibition assay (Transcreener ADP2 fluorescence polarization); assay type: biochemical; details: 280 μM ATP
In short: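 4 nM GCN2 + 200 μM (RS)7 + compound (0–8 μM), 10 min preinc.; start with ATP (280 μM final); 1 h, 25 °C; pH 7.5 Tris/NaCl/MgCl2/DTT; ADP FP readout; IC50, Ki(app) via tight-binding fit.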

[1] = biological target: intracellular GCN2 (phosphorylation of the GCN2 substrate eIF2α) (Homo sapiens, UniProt Q9P2K8); assay: GCN2 cellular inhibition assay (AlphaScreen SureFire P-eIF2α Ser51, borrelidin-treated U2OS cells); assay type: cell-based; details: biomarker assay, phosphorylated eIF2α Ser51 in borrelidin-treated U2OS cells
In short: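 Read-out: AlphaScreen SureFire phospho-eIF2α (Ser51) signal in U2OS lysates. Cells get 4-fold compound dilutions (top 40 μM final) plus 10 μM borrelidin, 1 h, 37 °C. Percent inhibition is relative to borrelidin-alone controls.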

[2] = compounds of Formula II, 4 nM GCN2 kinase
[3] = Enzyme activity for compounds of Formula IV, Ki(app), 25° C.

Chain of GCN2 kinase (Q9P2K8 whole entry): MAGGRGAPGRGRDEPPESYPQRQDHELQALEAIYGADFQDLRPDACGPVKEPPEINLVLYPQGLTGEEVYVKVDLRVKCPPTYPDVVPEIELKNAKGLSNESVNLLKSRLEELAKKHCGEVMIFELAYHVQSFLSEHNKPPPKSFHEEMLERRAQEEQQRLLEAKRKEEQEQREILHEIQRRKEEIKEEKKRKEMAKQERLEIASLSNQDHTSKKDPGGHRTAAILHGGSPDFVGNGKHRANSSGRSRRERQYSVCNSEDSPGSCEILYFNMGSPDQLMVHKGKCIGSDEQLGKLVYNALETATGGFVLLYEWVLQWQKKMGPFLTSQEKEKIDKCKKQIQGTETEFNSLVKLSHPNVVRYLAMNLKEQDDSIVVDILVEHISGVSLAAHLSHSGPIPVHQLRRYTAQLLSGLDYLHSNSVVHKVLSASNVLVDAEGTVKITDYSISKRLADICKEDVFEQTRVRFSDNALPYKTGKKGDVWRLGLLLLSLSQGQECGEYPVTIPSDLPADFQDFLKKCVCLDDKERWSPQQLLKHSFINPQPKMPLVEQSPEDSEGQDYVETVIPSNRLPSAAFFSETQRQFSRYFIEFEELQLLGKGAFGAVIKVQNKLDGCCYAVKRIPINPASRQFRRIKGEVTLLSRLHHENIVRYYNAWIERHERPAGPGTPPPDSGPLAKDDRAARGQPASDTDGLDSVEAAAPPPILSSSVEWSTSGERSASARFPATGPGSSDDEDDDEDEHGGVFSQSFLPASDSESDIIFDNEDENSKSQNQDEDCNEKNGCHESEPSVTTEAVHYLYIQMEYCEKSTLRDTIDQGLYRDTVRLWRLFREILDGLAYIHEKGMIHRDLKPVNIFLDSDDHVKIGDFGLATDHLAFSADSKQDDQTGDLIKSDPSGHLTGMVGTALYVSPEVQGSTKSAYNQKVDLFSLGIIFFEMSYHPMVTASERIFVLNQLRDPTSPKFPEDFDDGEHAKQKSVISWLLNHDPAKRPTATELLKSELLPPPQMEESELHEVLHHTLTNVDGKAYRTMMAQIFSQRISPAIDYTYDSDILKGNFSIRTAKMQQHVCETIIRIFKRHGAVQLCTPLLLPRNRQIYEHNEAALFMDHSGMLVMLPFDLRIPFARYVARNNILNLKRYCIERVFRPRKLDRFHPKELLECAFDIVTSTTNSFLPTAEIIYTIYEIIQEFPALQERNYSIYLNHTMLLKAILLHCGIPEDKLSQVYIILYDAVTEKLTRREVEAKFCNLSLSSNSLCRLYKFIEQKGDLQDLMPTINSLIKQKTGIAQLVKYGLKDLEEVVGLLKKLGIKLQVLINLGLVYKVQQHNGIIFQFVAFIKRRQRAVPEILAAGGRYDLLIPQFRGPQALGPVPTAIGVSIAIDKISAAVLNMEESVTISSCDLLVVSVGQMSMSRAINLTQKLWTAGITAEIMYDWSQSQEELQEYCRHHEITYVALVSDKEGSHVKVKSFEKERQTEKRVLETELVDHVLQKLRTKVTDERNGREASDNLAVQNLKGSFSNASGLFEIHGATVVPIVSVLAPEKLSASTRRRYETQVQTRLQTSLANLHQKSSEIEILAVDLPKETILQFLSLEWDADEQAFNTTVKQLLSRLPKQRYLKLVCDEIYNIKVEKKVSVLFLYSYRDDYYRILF
Chain of intracellular GCN2 (phosphorylation of the GCN2 substrate eIF2α) (Q9P2K8 whole entry): as above

Row | pKi (GCN2 kinase; [2]) | pIC50 ([1]; compounds of Formula II) | pKi (GCN2 kinase; [3]) | pIC50 ([1]; compounds of Formula IV) | Structure (SMILES)
1 | 6.00 to 8.00 | < 5.30 |  |  | CC1CCC(N=S(C)(C)=O)CN1c1cc(-c2cnc3ccc(C(F)F)nn23)ncn1 (centres unmarked) [II-696, [1-[6-[6-(Difluoromethyl)imidazo[1,2-b]pyridazin-3-yl]pyrimidin-4-yl]-6-methyl-3-piperidyl]imino-dimethyl-λ^6-sulfanone]
2 |  |  | 6.00 to 7.00 | < 5.30 | C[C@H]1CCCCN1c1ccnc(-c2cnc3cnc(C(F)F)cn23)n1 [IV-85, (S)-6-(Difluoromethyl)-3-(4-(2-methylpiperidin-1-yl)pyrimidin-2-yl)imidazo[1,2-a]pyrazine]
3 |  |  | 6.00 to 7.00 | < 5.30 | Cc1n[nH]c(C)c1C1CN(c2ccnc(-c3cnc4cnc(C(F)(F)F)cn34)n2)CC(C)N1 (single isomer, unassigned) [IV-467, 3-(4-(3-(3,5-Dimethyl-1H-pyrazol-4-yl)-5-methylpiperazin-1-yl)pyrimidin-2-yl)-6-(trifluoromethyl)imidazo[1,2-a]pyrazine]
4 |  |  | > 8.00 | 5.30 to 6.30 | CC1CN(c2ccnc(-c3cnc4cnc(C(F)(F)F)cn34)n2)C(C)C(c2c[nH]c(C(F)(F)F)n2)N1 (single isomer, unassigned) [IV-673, 3-(4-(2,5-Dimethyl-3-(2-(trifluoromethyl)-1H-imidazol-4-yl)piperazin-1-yl)pyrimidin-2-yl)-6-(trifluoromethyl)imidazo[1,2-a]pyrazine]
5 |  |  | > 8.00 | 5.30 to 6.30 | CC1CN(c2ccnc(-c3cnc4cnc(C(F)(F)F)cn34)n2)C(C)C(c2cn[nH]c2)O1 (centres unmarked) [IV-416, 3,6-Dimethyl-2-(1H-pyrazol-4-yl)-4-(2-(6-(trifluoromethyl)imidazo[1,2-a]pyrazin-3-yl)pyrimidin-4-yl)morpholine]
6 |  |  | 7.00 to 8.00 | < 5.30 | FC(F)(F)c1cn2c(-c3nccc(N4CCCC(c5nccs5)C4)n3)cnc2cn1 (centres unmarked) [IV-675, 2-(1-(2-(6-(Trifluoromethyl)imidazo[1,2-a]pyrazin-3-yl)pyrimidin-4-yl)piperidin-3-yl)thiazole]
7 | 6.00 to 8.00 | < 5.30 |  |  | COc1ccc2ncc(-c3ccnc(N4CCN(C(C)=O)CC4)c3)n2n1 [II-204, 1-(4-(4-(6-Methoxyimidazo[1,2-b]pyridazin-3-yl)pyridin-2-yl)piperazin-1-yl)ethan-1-one trifluoroacetate]
8 | > 8.00 | 5.30 to 6.30 |  |  | CC1CN(c2cc(-c3cnc4ccc(C(F)(F)F)nn34)ncn2)C(C)C(c2cn[nH]c2)N1 (centres unmarked) [II-698]
9 |  |  | 6.00 to 7.00 | < 5.30 | C[C@@H]1CCCN(c2ccnc(-c3cnc4cnc(C(F)F)cn34)n2)C1 [IV-129, (R)-6-(Difluoromethyl)-3-(4-(3-methylpiperidin-1-yl)pyrimidin-2-yl)imidazo[1,2-a]pyrazine]
10 |  |  | > 8.00 | > 6.30 | Brc1cn2c(-c3nccc(N4CCCC(c5cn[nH]c5)C4)n3)cnc2cn1 (centres unmarked) [IV-346, 3-(4-(3-(1H-Pyrazol-4-yl)piperidin-1-yl)pyrimidin-2-yl)-6-bromoimidazo[1,2-a]pyrazine]
11 | 6.00 to 8.00 | < 5.30 |  |  | CS(=O)(=O)N1CC2(CN(c3cc(-c4cnc5ccc(C(F)F)nn45)ccn3)CCO2)C1 [II-126, 8-(4-(6-(Difluoromethyl)imidazo[1,2-b]pyridazin-3-yl)pyridin-2-yl)-2-(methylsulfonyl)-5-oxa-2,8-diazaspiro[3.5]nonane]
12 |  |  | 6.00 to 7.00 | < 5.30 | C[C@H]1COCCN1c1ccnc(-c2cnc3cnc(C(F)F)cn23)n1 [IV-81, (S)-4-(2-(6-(Difluoromethyl)imidazo[1,2-a]pyrazin-3-yl)pyrimidin-4-yl)-3-methylmorpholine]
13 | 6.00 to 8.00 | < 5.30 |  |  | CC(=O)N1CCN(c2cc(-c3cnc4ccc(OC(F)F)nn34)ccn2)CC1 [II-182, 1-(4-(4-(6-(Difluoromethoxy)imidazo[1,2-b]pyridazin-3-yl)pyridin-2-yl)piperazin-1-yl)ethanone]
